{
  "source": "paper PMC5556071",
  "about": "“ATR inhibition facilitates targeting of leukemia dependence on convergent nucleotide biosynthetic pathways” (Nature Communications, 2017)",
  "key": {"[1]": {"test_system": "CEM cells", "test": "Targeted LC-MS/MS-MRM of de novo and salvage dCTP biosynthesis (nucleotide pools and newly replicated DNA)", "assay_type": "cell-based, human", "parameters": "key to Substrate utilization Glucose / Substrate utilization dC: ↓: partial decrease/inhibition; ↓↓↓: nearly complete inhibition; ↑: increase; ⟷: no change", "protocol": "Cells were transferred into RPMI-1640 without glucose and supplemented with 10% dialyzed FBS (Gibco) containing the following labeled substrates: precursors for de novo [U-^13C6]glucose (Sigma-Aldrich, 389374) at 11 mM; precursors for purine salvage [U-^13C10,^15N5]dA (Cambridge Isotopes, CIL 3896), [^15N5]dA (Cambridge Isotopes, NLM-3895) and [^15N5]dG (Cambridge Isotopes, NLM-3899) at 5 µM or as indicated; and precursors for pyrimidine salvage: [U-^13C9,^15N3]dC (Silantes, 124603602) and [U-^13C10,^15N2]dT (Cambridge Isotopes, CNLM-3902) at 5 µM and [^15N2]orotate (Cambridge Isotopes, NLM-1048) at indicated concentrations. The cells were incubated for 12 h or as indicated before sample collection and processing.\nThe rates of dCTP incorporation into the DNA were determined using linear regression with procedure GLM in SAS (v. 9.4). DNA % label was transformed using a shifted log addition of 1 due to the presence of zeros in the data set. Rates were calculated using the slope of the regression line for the log transformed data and are presented in the table with the associated standard errors, along with the ratio between the rate of incorporation into DNA by the de novo and salvage pathways (Table 1).\nCell cycle synchronization. Cells were treated with a CDK4/6 inhibitor, Pablociclib or PD-0332991 (Selleckchem, S1116) for 18 h to synchronize them in the G1 phase. Subsequently, cells were washed twice with PBS containing 2% FBS (Omega Scientific) and released into fresh media. […]\nClinical Microarray Core on an Illumina HiSeq3000 using the SeqCap EZ Exome Enrichment Kit v3.0 (Roche).\nReads were mapped to UCSC hg19 (bwa-mem), deduplicaed (PicardTools), and subjected to base quality score recalibration and realignment around known indels according to the Broad Institute Genome Analysis Toolkit (GATK) Best Practices v3.0. Variants in genes associated with nucleotide biosynthesis were identified using the GATK HaplotypeCaller, and annotated with Oncotator (http://portals.broadinstitute.org/oncotator/). dNTP sample processing. 0.5 – 1 x 10^6 cells were collected into 1.5 mL microcentrifuge tubes and centrifuged (450 x g, 4 min, 4 °C). The supernatant was carefully aspirated and the cells were washed twice with 1 mL of cold PBS, followed each time by centrifugation (450 x g, 4 min 4 °C). The PBS were aspirated.\nThereafter, the pellets were treated with 10 µL of 10% trifluoroacetic acid with internal standards (1 µM […]\ns, and incubated on ice for 10 min. 40 µL of 500 mM ammonium acetate, pH = 9.3, with the same internal standard (1 µM [15N3]dCMP and [15N3]dCTP) was then added and the samples were vigorously vortexed again for 30 s. The samples were centrifuged (14,000 x g, 10 min, 4 °C) to remove cell debris. The supernatants (~ 40 µL) were transferred into HPLC injector vials. Stock solutions (10 mM) of rCTP, rCDP, dCMP, dCDP, and dCTP (Sigma Aldrich) were prepared individually in water, and stored at –20 °C before use to generate calibration standards. Calibration standards were prepared and mixed together in water with internal standards (1 µM [15N3]dCMP and [15N3]dCTP) to make working stock concentrations in 100 nM – 100 µM range.\nCalibration standards were diluted 10-fold into the same nucleotide extraction solution of 10% TFA/500 mM ammonium acetate (1:4, v/v) with internal standards (1 µM [15N3]dCMP and [15N3]dCTP) to give a final concentration in 10 nM – 10 µM. Nucleotide and calibration samples were processed together to minimize […]\nDNA sample processing. Genomic DNA from 0.5 – 1 x 10^4 cells was extracted using the Quick-gDNA MiniPrep kit (Zymo Research, D3021) and hydrolyzed to nucleosides using the DNA Degradase Plus kit (Zymo Research, E2021), following manufacturer-supplied instructions. In the final step of DNA extraction, 50 µL of […]\nwater was used to elute the DNA into 1.5 mL microcentrifuge tubes. A nuclease solution (5 µL; 10X buffer/DNA Degradase Plus™/water, 2.5/1/1.5, v/v/v) was added to 20 µL of the eluted genomic DNA in an HPLC injector […]\nvial. […]"}, "[2]": {"test_system": "dasatinib-resistant p185BCR-ABL Arf–/– pre-B-ALL cells", "test": "Apoptosis assay, Annexin V and PI staining", "assay_type": "cell-based, mouse", "conditions": "350 nM 3-AP, 100 nM VE-822, 1 µM dCKi, 72 h", "protocol": "Apoptosis and cell death were assayed using Annexin V-FITC and PI according to manufacturer’s instructions (FITC Annexin V Apoptosis Detection Kit, BD Sciences, #556570). […]\nAnnexin V staining. Cells were treated with the indicated treatments for 24 or 72 h, then collected and washed twice with 1 mL of FACS buffer (2% FBS in PBS). Induction of apoptosis and cell death were assayed by staining the cells with Annexin V-FITC and PI according to manufacturer’s instructions (FITC Annexin V Apoptosis Detection Kit, BD Sciences, #556570).\nFACS analysis. All flow cytometry data were acquired on five-laser LSRII cytometers (BD) for analysis, and analyzed using FlowJo software (Tree Star). […]"}, "[3]": {"conditions": "CEM 12 h, 1 uM VE-822, 1 uM DI-82, 500 nM 3-AP, #1-#3"}, "[4]": {"conditions": "CEM after release from G1 arrest"}},
  "note": "“And” between values parts separate entries of the source, which are not always exact repeats. Equal values may be shown once.",
  "data": [
    {"smiles": "CNCc1ccc(-c2cc(-c3nc(-c4ccc(S(=O)(=O)C(C)C)cc4)cnc3N)on2)cc1", "note": "[VE-822]", "values": [
      {"measurement": "reduction in overall DNA labeling compared to untreated cells", "setting": "[1]; 12 h time point after release from G1 arrest", "value": 30, "unit": "%"},
      {"measurement": "% sum abundance, de novo DNA-C, mass increase in nucleobase +0, in deoxyribose +3", "setting": "[1]; [3]", "value": "0.14% and 0.15% and 0.16%"},
      {"measurement": "% sum abundance, de novo DNA-C, mass increase in nucleobase +0, in deoxyribose +4", "setting": "[1]; [3]", "value": "0.43% and 0.45% and 0.46%"},
      {"measurement": "% sum abundance, de novo DNA-C, mass increase in nucleobase +0, in deoxyribose +5", "setting": "[1]; [3]", "value": "7.38% and 7.69% and 7.03%"},
      {"measurement": "% sum abundance, de novo DNA-C, mass increase in nucleobase +1, in deoxyribose +3", "setting": "[1]; [3]", "value": 0.00, "unit": "%"},
      {"measurement": "% sum abundance, de novo DNA-C, mass increase in nucleobase +1, in deoxyribose +4", "setting": "[1]; [3]", "value": "0.06% and 0.0569% and 0.066%"},
      {"measurement": "% sum abundance, de novo DNA-C, mass increase in nucleobase +1, in deoxyribose +5", "setting": "[1]; [3]", "value": "0.95% and 0.96% and 0.91%"},
      {"measurement": "% sum abundance, de novo DNA-C, mass increase in nucleobase +2, in deoxyribose +4", "setting": "[1]; [3]", "value": "0.0654% and 0.0348% and 0.0476%"},
      {"measurement": "% sum abundance, de novo DNA-C, mass increase in nucleobase +2, in deoxyribose +5", "setting": "[1]; [3]", "value": "0.64% and 0.67% and 0.62%"},
      {"measurement": "% sum abundance, de novo DNA-C, mass increase in nucleobase +3, in deoxyribose +4", "setting": "[1]; [3]", "value": 0.00, "unit": "%"},
      {"measurement": "% sum abundance, de novo DNA-C, mass increase in nucleobase +3, in deoxyribose +5", "setting": "[1]; [3]", "value": "0.16% and 0.17% and 0.14%"},
      {"measurement": "% sum abundance, de novo DNA-C, mass increase in nucleobase +4, in deoxyribose +4", "setting": "[1]; [3]", "value": 0.00, "unit": "%"},
      {"measurement": "% sum abundance, de novo DNA-C, mass increase in nucleobase +4, in deoxyribose +5", "setting": "[1]; [3]", "value": 0.00, "unit": "%"},
      {"measurement": "% sum abundance, salvage DNA-C, mass increase in nucleobase +5, in deoxyribose +0", "setting": "[1]; [3]", "value": 0.00, "unit": "%"},
      {"measurement": "% sum abundance, salvage DNA-C, mass increase in nucleobase +5, in deoxyribose +4", "setting": "[1]; [3]", "value": 0.00, "unit": "%"},
      {"measurement": "% sum abundance, salvage DNA-C, mass increase in nucleobase +5, in deoxyribose +5", "setting": "[1]; [3]", "value": 0.00, "unit": "%"},
      {"measurement": "% sum abundance, salvage DNA-C, mass increase in nucleobase +6, in deoxyribose +0", "setting": "[1]; [3]", "value": 0.00, "unit": "%"},
      {"measurement": "% sum abundance, salvage DNA-C, mass increase in nucleobase +6, in deoxyribose +4", "setting": "[1]; [3]", "value": 0.00, "unit": "%"},
      {"measurement": "% sum abundance, salvage DNA-C, mass increase in nucleobase +6, in deoxyribose +5", "setting": "[1]; [3]", "value": 0.09, "unit": "%"},
      {"measurement": "% sum abundance, salvage DNA-C, mass increase in nucleobase +7, in deoxyribose +0", "setting": "[1]; [3]", "value": 0.00, "unit": "%"},
      {"measurement": "% sum abundance, salvage DNA-C, mass increase in nucleobase +7, in deoxyribose +4", "setting": "[1]; [3]", "value": "0.06% and 0.07%"},
      {"measurement": "% sum abundance, salvage DNA-C, mass increase in nucleobase +7, in deoxyribose +5", "setting": "[1]; [3]", "value": "1.08% and 1.19% and 1.11%"},
      {"measurement": "% sum abundance, unlabeled DNA-C, mass increase in nucleobase +0, in deoxyribose +0", "setting": "[1]; [3]", "value": "78.84% and 78.52% and 79.31%"},
      {"measurement": "% sum abundance, unlabeled DNA-C, mass increase in nucleobase +0, in deoxyribose +1", "setting": "[1]; [3]", "value": "4.53% and 4.48% and 4.46%"},
      {"measurement": "% sum abundance, unlabeled DNA-C, mass increase in nucleobase +0, in deoxyribose +2", "setting": "[1]; [3]", "value": "0.68% and 0.72%"},
      {"measurement": "% sum abundance, unlabeled DNA-C, mass increase in nucleobase +1, in deoxyribose +0", "setting": "[1]; [3]", "value": "4.47% and 4.26% and 4.33%"},
      {"measurement": "% sum abundance, unlabeled DNA-C, mass increase in nucleobase +1, in deoxyribose +1", "setting": "[1]; [3]", "value": "0.21% and 0.22% and 0.24%"},
      {"measurement": "% sum abundance, unlabeled DNA-C, mass increase in nucleobase +1, in deoxyribose +2", "setting": "[1]; [3]", "value": 0.00, "unit": "%"},
      {"measurement": "% sum abundance, unlabeled DNA-C, mass increase in nucleobase +2, in deoxyribose +0", "setting": "[1]; [3]", "value": "0.24% and 0.27% and 0.28%"},
      {"measurement": "% sum abundance, unlabeled DNA-C, mass increase in nucleobase +2, in deoxyribose +1", "setting": "[1]; [3]", "value": 0.00, "unit": "%"},
      {"measurement": "% sum abundance, unlabeled DNA-C, mass increase in nucleobase +2, in deoxyribose +2", "setting": "[1]; [3]", "value": 0.00, "unit": "%"},
      {"measurement": "% sum abundance, unlabeled DNA-C, mass increase in nucleobase +3, in deoxyribose +0", "setting": "[1]; [3]", "value": 0.00, "unit": "%"},
      {"measurement": "% sum abundance, unlabeled DNA-C, mass increase in nucleobase +3, in deoxyribose +1", "setting": "[1]; [3]", "value": 0.00, "unit": "%"},
      {"measurement": "% sum abundance, unlabeled DNA-C, mass increase in nucleobase +4, in deoxyribose +0", "setting": "[1]; [3]", "value": 0.00, "unit": "%"},
      {"measurement": "De novo: rate of dCTP incorporation into newly replicated DNA (slope ± standard error of regression line)", "setting": "[1]; [4]", "value": "0.17 ± 0.01", "unit": "arbitrary unit"},
      {"measurement": "Ratio (salvage/de novo)", "setting": "[1]; [4]", "value": 0.85},
      {"measurement": "Salvage: rate of dCTP incorporation into newly replicated DNA (slope ± standard error of regression line)", "setting": "[1]; [4]", "value": "0.14 ± 0.01", "unit": "arbitrary unit"},
      {"measurement": "free dCTP levels or their biosynthetic origins", "setting": "[1]; after release from G1 arrest", "value": "did not alter"},
      {"measurement": "decrease of [13C6]glucose labeling of the rCDP pool", "setting": "[1]; asynchronous CEM, 12 h", "value": 40, "unit": "%"},
      {"measurement": "reduction of dCK activity (contribution of labeled [13C9,15N3]dC to intracellular dCMP)", "setting": "[1]; asynchronous CEM, 12 h", "value": "~ 33%"},
      {"measurement": "Substrate utilization Glucose", "setting": "[1]; summary Fig. 2g, CEM cells", "value": "↓"},
      {"measurement": "Substrate utilization dC", "setting": "[1]; summary Fig. 2g, CEM cells", "value": "↓"},
      {"measurement": "Annexin V+ cells (apoptosis induction)", "setting": "[2]; cells harvested from bone marrow of a treated leukemic mouse", "value": 12.9, "unit": "%"},
      {"measurement": "Annexin V+ cells (apoptosis induction)", "setting": "[2]; cells prior to inoculation in mice", "value": 20.7, "unit": "%"}
    ]}
  ]
}
